Patent US4349546A, “D-Allose derivative and preparation method therefor” (Wakamoto Pharmaceutical Co., Ltd., priority 1980, dated 1982)

Tested on: Peripheral leukocyte count
Test: Effects on peripheral leukocyte count (Test Example 6)
Assay type: in vivo, DDY mice
From the text: Comparison of effects of CNUA and Me-CCNU* on peripheral leukocyte count:
Six-week old DDY mice each weighing 22±1 g; one group comprising 5 male mice.
CNUA and Me-CCNU were given intraperitoneally on the first day. The, blood was drawn from a tail vein at time intervals to determine the leukocyte count. The samples were used in the form of a solution in an isotonic sodium chloride solution.

Question: What does the source list for `O=NN(CCCl)C(=O)N[C@@H]1[C@H](O)[C@@H](CO)OC(O)[C@@H]1O` (stereo partly drawn) [CNUA, 3-[3-(2-chloroethyl)-3-nitrosoureido]-3-deoxy-D-allose]?
Answer: Peripheral leukocyte count after the administration (30 mg/kg ip, 2 day): 84.0 % based on the control; Peripheral leukocyte count after the administration (30 mg/kg ip, 4 day): 82.2 % based on the control; Peripheral leukocyte count after the administration (30 mg/kg ip, 7 day): 85.6 % based on the control; Peripheral leukocyte count after the administration (30 mg/kg ip, 10 day): 84.7 % based on the control; Peripheral leukocyte count after the administration (30 mg/kg ip, 14 day): 159 % based on the control; Peripheral leukocyte count after the administration (60 mg/kg ip, 2 day): 78.2 % based on the control; Peripheral leukocyte count after the administration (60 mg/kg ip, 4 day): 60.0 % based on the control; Peripheral leukocyte count after the administration (60 mg/kg ip, 7 day): 64.5 % based on the control; Peripheral leukocyte count after the administration (60 mg/kg ip, 10 day): 80.0 % based on the control; Peripheral leukocyte count after the administration (60 mg/kg ip, 14 day): 100 % based on the control; myelotoxicity (as compared with Me-CCNU): relatively low myelotoxicity
